From ChEMBL document CHEMBL1201862, “PubChem BioAssay data set” (2004)
Each block holds one molecule with its values, some of them ahead of it. The source made the active and inactive calls.

Tests used:
[1] = target: T1, High affinity choline transporter 1 (Homo sapiens, UniProt Q9GZV3); test: CHT inhibitors, dose response, cell-based, 5-point CRC, membrane potential dye (AID 504840); format: functional
T1 sequence (Q9GZV3 whole entry): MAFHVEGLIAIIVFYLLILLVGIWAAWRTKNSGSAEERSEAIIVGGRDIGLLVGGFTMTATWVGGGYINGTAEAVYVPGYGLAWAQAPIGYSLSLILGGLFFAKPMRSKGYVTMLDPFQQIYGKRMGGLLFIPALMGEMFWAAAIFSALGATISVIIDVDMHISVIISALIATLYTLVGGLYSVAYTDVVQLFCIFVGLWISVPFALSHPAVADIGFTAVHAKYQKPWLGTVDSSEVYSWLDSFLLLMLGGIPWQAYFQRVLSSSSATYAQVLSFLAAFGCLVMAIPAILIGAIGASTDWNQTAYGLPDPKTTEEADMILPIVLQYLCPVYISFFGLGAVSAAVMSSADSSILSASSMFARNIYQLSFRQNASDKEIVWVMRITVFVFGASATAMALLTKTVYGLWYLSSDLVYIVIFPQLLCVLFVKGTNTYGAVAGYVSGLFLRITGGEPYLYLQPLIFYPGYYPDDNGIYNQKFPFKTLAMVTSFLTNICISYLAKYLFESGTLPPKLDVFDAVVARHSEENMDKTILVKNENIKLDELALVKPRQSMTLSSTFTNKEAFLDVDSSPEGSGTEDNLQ

[2] = target: T2, Calpain-2 catalytic subunit (Sus scrofa, UniProt P43367); test: pig calpain II inhibitor potency, dose response, biochemical, fluorogenic peptide substrate (AID 1420); format: functional
T2 sequence (P43367 whole entry): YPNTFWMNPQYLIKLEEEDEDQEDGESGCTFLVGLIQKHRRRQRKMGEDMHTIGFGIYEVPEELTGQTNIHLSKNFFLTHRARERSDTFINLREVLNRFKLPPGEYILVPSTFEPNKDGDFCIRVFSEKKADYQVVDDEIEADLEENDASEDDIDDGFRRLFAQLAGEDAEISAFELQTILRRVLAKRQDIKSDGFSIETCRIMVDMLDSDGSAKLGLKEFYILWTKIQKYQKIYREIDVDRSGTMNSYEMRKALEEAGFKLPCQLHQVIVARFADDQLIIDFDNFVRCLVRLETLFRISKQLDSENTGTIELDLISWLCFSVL

Cytochrome P450 2C19 = Cytochrome P450 2C19 (Homo sapiens, UniProt P33261); test: Cytochrome panel assay with activity outcomes. Panel member name: p450-cyp2c19 Compounds with AC50 equal or less than 10 uM are considered active; format: functional
Chain of Cytochrome P450 2C19 (P33261 whole entry): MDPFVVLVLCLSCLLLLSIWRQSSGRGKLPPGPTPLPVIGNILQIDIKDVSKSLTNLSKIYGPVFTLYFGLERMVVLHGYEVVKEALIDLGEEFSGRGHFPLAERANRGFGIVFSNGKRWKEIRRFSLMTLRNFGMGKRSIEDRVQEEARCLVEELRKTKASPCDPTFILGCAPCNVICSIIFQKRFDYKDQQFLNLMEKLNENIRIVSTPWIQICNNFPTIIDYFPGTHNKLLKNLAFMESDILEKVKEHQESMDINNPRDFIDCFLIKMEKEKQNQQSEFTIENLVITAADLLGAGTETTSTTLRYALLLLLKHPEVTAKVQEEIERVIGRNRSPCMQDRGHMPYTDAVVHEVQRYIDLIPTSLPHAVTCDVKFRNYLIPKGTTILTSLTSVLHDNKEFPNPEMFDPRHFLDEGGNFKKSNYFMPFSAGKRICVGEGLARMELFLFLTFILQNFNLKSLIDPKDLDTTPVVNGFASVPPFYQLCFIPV

Cytochrome P450 3A4 = Cytochrome P450 3A4 (Homo sapiens, UniProt P08684);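 further: CYP3A4 tested as one member of a cytochrome P450 panel screen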
Chain of Cytochrome P450 3A4 (P08684 whole entry): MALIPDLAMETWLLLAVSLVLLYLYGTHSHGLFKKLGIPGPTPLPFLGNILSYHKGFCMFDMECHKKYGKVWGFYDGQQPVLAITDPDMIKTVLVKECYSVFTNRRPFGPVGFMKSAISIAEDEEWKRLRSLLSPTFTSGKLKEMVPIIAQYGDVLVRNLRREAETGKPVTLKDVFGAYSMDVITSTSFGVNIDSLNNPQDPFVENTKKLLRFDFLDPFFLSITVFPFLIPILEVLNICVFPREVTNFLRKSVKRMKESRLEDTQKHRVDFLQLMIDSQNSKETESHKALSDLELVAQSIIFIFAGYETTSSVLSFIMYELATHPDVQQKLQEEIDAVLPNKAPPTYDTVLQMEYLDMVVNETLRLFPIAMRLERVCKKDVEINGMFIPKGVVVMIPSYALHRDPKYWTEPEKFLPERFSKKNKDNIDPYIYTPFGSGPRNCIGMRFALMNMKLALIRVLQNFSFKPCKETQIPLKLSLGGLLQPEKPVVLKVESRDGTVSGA

P388/ADR = test: cells; format: functional; conditions: Mus musculus
SN12K1 = test: cells; format: functional; conditions: Homo sapiens
P388 = test: cells; format: functional; conditions: Mus musculus
[3] = target: Glyceraldehyde-3-phosphate dehydrogenase (Homo sapiens, UniProt P04406)
Chain of Glyceraldehyde-3-phosphate dehydrogenase (P04406 whole entry): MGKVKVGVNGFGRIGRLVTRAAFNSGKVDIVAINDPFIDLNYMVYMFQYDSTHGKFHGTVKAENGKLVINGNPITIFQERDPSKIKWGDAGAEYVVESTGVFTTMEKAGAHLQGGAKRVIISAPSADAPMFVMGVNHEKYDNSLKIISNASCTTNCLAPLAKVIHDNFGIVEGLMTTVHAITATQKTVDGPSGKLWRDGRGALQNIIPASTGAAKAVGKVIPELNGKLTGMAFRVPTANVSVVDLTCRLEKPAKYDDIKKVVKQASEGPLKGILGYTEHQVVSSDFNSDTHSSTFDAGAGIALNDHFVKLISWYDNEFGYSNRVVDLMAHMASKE

cells = format: functional, cell-based
[4] = target: T3, Nuclear receptor subfamily 0 group B member 1 (Homo sapiens, UniProt P51843); format: functional, cell-based;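 further: HEK293T cells transfected with SF-1 and DAX-1 plus StAR promoter luciferase reporter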
T3 sequence (P51843 whole entry): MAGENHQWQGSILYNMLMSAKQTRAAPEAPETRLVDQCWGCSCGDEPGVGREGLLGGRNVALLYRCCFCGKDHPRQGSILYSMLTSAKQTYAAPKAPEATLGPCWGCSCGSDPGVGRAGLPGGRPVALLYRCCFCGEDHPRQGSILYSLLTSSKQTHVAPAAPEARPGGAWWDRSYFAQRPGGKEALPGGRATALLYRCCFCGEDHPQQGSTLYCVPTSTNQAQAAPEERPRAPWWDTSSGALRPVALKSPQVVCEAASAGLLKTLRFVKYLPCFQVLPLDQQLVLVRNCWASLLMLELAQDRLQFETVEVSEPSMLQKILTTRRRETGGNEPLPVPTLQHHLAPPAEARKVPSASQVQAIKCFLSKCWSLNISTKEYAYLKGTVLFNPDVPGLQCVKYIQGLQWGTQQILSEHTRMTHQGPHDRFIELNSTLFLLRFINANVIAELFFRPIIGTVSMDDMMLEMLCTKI

Cytochrome P450 2D6 = Cytochrome P450 2D6 (Homo sapiens, UniProt P10635);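 further: CYP2D6 member of a cytochrome P450 panel assay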
Chain of Cytochrome P450 2D6 (P10635 whole entry): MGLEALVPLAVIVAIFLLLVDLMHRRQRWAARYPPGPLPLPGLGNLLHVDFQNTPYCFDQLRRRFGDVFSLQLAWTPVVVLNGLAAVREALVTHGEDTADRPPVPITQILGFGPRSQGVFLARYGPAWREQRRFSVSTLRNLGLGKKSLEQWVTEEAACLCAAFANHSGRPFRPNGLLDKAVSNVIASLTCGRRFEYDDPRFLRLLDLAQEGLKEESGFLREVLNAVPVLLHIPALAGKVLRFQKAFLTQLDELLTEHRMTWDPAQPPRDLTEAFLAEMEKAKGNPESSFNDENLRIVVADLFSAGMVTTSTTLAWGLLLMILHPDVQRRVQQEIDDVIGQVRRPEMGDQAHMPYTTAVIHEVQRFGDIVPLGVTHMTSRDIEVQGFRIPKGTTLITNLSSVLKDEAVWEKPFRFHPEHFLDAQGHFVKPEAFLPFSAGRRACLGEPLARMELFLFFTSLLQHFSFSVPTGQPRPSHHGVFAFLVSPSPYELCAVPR

[5] = HEp-2 cell cytotoxicity, dose response, cytotoxicity control for RSV inhibitor project, HTS (AID 2410); format: functional; conditions: human respiratory syncytial virus
Cytochrome P450 1A2 = target: T4, Cytochrome P450 1A2 (Homo sapiens, UniProt P05177);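 further: PubChem cytochrome P450 panel assay, CYP1A2 panel member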
T4 sequence (P05177 whole entry): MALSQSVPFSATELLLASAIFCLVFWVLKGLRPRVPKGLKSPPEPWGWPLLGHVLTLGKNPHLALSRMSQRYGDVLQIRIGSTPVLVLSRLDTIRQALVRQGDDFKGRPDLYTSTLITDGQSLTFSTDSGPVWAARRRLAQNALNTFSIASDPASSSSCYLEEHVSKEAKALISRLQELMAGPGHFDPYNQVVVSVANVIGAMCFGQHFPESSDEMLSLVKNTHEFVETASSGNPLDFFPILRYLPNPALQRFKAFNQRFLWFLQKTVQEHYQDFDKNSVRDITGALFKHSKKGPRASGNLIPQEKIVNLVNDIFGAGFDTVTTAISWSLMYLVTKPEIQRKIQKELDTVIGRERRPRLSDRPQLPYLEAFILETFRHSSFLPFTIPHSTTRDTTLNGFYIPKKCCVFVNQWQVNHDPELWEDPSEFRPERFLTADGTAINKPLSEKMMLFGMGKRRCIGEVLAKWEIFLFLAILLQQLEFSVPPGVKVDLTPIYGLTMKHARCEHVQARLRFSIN

IC50 [1]: 12.3 µM (active)
SMILES: CCCc1cc2c(=O)c(-c3ccccn3)c(C)oc2cc1O

IC50 [2]: 12.1 µM (active)
SMILES: CC(C)Cn1c(-c2ccc(Br)cc2)cnc1S

AC50 (Cytochrome P450 2C19): inconclusive | AC50 (Cytochrome P450 3A4): inconclusive
SMILES: CCN1CCCC1CNC(=O)C(=O)Nc1ccc(OC)cc1 (centres undefined)

SMILES: CC(=O)NC1=C[C@@H]([C@H]2COC(C)(C)O2)OC1=O
GI50 (P388/ADR): > 100 µM (inactive) | GI50 (SN12K1): > 100 µM (inactive) | GI50 (P388): > 100 µM (inactive)

IC50 [3]: > 50 µM (inconclusive)
SMILES: O=C1C(Cl)=C(N2CCN(c3ccccc3)CC2)C(=O)N1c1ccc(Cl)nc1

SMILES: Cc1c2c(cc3c1[nH]c1ccccc13)C=NCC2
GI50 (P388/ADR): 8 µM (inactive) | GI50 (SN12K1): 6.98 µM (inactive) | GI50 (P388): 6.93 µM (inactive)

SMILES: Cc1cc(NC(=O)NC(=O)c2ccccc2F)no1
IC50 (cells): > 67.5 µM (inactive) | IC50 [4]: > 67.5 µM (inactive)

AC50 (Cytochrome P450 2D6): 39.8 µM (inconclusive) | AC50 (Cytochrome P450 3A4): inconclusive
SMILES: FC(F)(F)c1ccccc1-c1cc(NCc2ccccc2)ncn1

SMILES: CSc1nc(NC2OCC(O)C(O)C2O)c(N)c(=O)[nH]1 (centres undefined)
GI50 (P388/ADR): > 100 µM (inactive) | GI50 (SN12K1): > 100 µM (inactive) | GI50 (P388): > 100 µM (inactive)

IC50 [1]: 13.2 µM (active)
SMILES: Cn1c(-c2ccccc2O)cc2ccccc21

AC50 (Cytochrome P450 2D6): 0.0316 µM (inconclusive) | AC50 (Cytochrome P450 1A2): 5.01 µM (inconclusive) | AC50 (Cytochrome P450 3A4): inconclusive
SMILES: O=C(c1ccc2c(c1)OCCO2)C1CCN(S(=O)(=O)c2ccccc2F)CC1
CC50 [5]: > 50 µM (active)

GI50 (P388/ADR): 0.0251 µM (active) | GI50 (P388): 0.0125 µM (active)
SMILES: C=C(OC1C(C)=C2C(C1OC(=O)CCCCCCC)C(C)(OC(C)=O)CC(OC(=O)CCC)C1(O)C2OC(=O)C1(C)O)/C(C)=C/C (centres undefined)
GI50 (SN12K1): 0.0125 µM (active)

SMILES: Nc1[nH]cnc2ncnc1-2 [ADENINE]
GI50 (P388/ADR): 79.3 µM (inactive) | GI50 (SN12K1): 213 µM (inactive) | GI50 (P388): 64.9 µM (inactive)

AC50 (Cytochrome P450 1A2): 25.1 µM (inconclusive) | AC50 (Cytochrome P450 3A4): inconclusive
SMILES: CCC(CC)C(=O)c1c[nH]c(C(=O)NCCCN2CCOCC2)c1

SMILES: Nc1ccn([C@@H]2C=C(CO)[C@@H](O)[C@H]2O)c(=O)n1
GI50 (P388/ADR): 0.0619 µM (active) | GI50 (SN12K1): 0.104 µM (active) | GI50 (P388): 0.0752 µM (active)

IC50 [2]: 12.3 µM (not active)
SMILES: Cc1nc2ccccc2[nH]c(=O)c1=NNc1ccc([N+](=O)[O-])cc1

AC50 (Cytochrome P450 2C19; read-out: AC50): 39.8 µM (inconclusive) | AC50 (Cytochrome P450 2D6): 15.8 µM (inconclusive) | AC50 (Cytochrome P450 1A2): 10 µM (inconclusive) | AC50 (Cytochrome P450 3A4): inconclusive
SMILES: O=C(c1cccc(F)c1)N1CCC2(CC1)CCN(c1ncccn1)CC2
